The values that follow come from paper PMC4612780, “Divergent Inhibitor Susceptibility among Airway Lumen-Accessible Tryptic Proteases” (PLoS ONE, 2015).

Common to all, as to experiment: chromogenic hydrolysis of QAR, […] nm, initial rates
Common to all, as to assay type: biochemical

For test [1], the target named is T1, β-tryptase; human lung (β) tryptase.
T1 construct: gene TPSAB1; native soluble tetramer from human lung (EMD-Millipore)
The settings on record: 1 mM QAR, pH 7.6, 120 mM NaCl, 0.05% Tween 20, 100 ug/ml heparin, 37 C, tryptase 0.70 nM.

Test [2] concerns the target T2, HAT; airway trypsin-like protease (Homo sapiens, UniProt O60235).
T2 construct: gene TMPRSS11D; recombinant soluble catalytic domain (R&D Systems)
The settings on record: 1 mM QAR, pH 7.6, 120 mM NaCl, 0.05% Tween 20, 100 ug/ml heparin, 37 C; HAT 0.72 nM; unreliable (beyond tested range 1.6-20 uM).

For test [3], the target named is T3, matriptase (Homo sapiens, UniProt Q9Y5Y6).
T3 construct: gene ST14
T3 sequence (Q9Y5Y6 615-855 limits assumed): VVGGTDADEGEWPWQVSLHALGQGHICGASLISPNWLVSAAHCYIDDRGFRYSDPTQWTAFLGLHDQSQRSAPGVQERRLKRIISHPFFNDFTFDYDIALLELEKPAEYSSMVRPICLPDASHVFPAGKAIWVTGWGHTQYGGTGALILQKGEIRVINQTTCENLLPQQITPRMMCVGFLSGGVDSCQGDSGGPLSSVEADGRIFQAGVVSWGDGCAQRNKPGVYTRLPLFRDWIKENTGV
As to conditions: 1 mM QAR, pH 7.6, 120 mM NaCl, 0.05% Tween 20, 100 ug/ml heparin, 37 C; matriptase 2.4 nM; unreliable (beyond tested range 0.24-1200 uM).

Test [4] has as its target T4, prostasin (Homo sapiens, UniProt Q16651).
T4 construct: gene PRSS8; recombinant soluble catalytic domain (R&D Systems)
As to conditions: 1 mM QAR, pH 7.6, 120 mM NaCl, 0.05% Tween 20, 100 ug/ml heparin, 37 C, prostasin 80 nM.

Test [5] addresses T2, HAT; airway trypsin-like protease. The settings on record: 1 mM QAR, pH 7.6, 120 mM NaCl, 0.05% Tween 20, 100 ug/ml heparin, 37 C, HAT 0.72 nM.
Test [6] deals with T3, matriptase. As to conditions: 1 mM QAR, pH 7.6, 120 mM NaCl, 0.05% Tween 20, 100 ug/ml heparin, 37 C, matriptase 2.4 nM.

T2 sequence (O60235 187-418 limits assumed): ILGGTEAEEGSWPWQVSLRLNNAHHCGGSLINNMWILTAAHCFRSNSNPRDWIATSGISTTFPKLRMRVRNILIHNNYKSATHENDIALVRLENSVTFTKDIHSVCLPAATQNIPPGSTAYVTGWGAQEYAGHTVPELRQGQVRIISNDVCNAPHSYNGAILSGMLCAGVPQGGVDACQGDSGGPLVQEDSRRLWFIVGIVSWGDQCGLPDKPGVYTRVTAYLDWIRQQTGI
T4 sequence (Q16651 33-322 limits assumed): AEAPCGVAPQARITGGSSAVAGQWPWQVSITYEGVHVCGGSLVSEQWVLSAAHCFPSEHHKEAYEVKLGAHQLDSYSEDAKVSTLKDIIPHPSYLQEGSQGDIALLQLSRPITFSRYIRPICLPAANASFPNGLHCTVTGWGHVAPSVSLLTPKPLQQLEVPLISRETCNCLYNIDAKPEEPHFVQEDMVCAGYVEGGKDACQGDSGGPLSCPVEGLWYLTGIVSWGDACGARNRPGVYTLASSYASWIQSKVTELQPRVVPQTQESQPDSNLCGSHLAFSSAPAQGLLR

Turning to `N=C(N)c1ccccc1` [benzamidine], the Tryptase in test [1] was 4.7e4 [3.4e4, 6.5e4] [inhibitor]/[enzyme] ratio (dimensionless). The HAT in test [2] was 1.4e6 [2.0e5, 9.6e6] [inhibitor]/[enzyme] ratio (dimensionless). Moreover, the Matriptase in test [3] is 1.1e6 [9.4e5, 1.2e6] [inhibitor]/[enzyme] ratio (dimensionless).

As to `N=C(N)Nc1ccc(C(=O)Oc2ccc3cc(C(=N)N)ccc3c2)cc1` [nafamostat], the Prostasin in test [4] is 11 [5.6, 20] [inhibitor]/[enzyme] ratio (dimensionless). In addition, the Tryptase in test [1] (covalent, suicide substrate, near-stoichiometric) is 0.44 [0.29, 0.67] [inhibitor]/[enzyme] ratio (dimensionless). Besides, the HAT in test [5] is 191 [154, 239] [inhibitor]/[enzyme] ratio (dimensionless).

With `N=C(N)c1ccc2[nH]c(Cc3nc4ccc(C(=N)N)cc4[nH]3)nc2c1` [BABIM, bis(5-amidino-2-benzimidazolyl)methane], in test [6], the Matriptase is 0.98 [0.87, 1.11] [inhibitor]/[enzyme] ratio (dimensionless). Moreover, the Tryptase in test [1] was 108 [78, 149] [inhibitor]/[enzyme] ratio (dimensionless). Moreover, the HAT in test [5] (brackets 95% CI) was 71 [48, 105] [inhibitor]/[enzyme] ratio (dimensionless).

For the molecule `CN(C)C(=O)COC(=O)Cc1ccc(OC(=O)c2ccc(NC(=N)N)cc2)cc1` [camostat], the Matriptase in test [6] (covalent (acyl intermediate)) is 96 [80, 115] [inhibitor]/[enzyme] ratio (dimensionless). Also, the Prostasin in test [4] (covalent (acyl intermediate)) was 14 [7.7, 25] [inhibitor]/[enzyme] ratio (dimensionless). Also, the Tryptase in test [1] (covalent (acyl intermediate)) was 5.2 [3.7, 7.2] [inhibitor]/[enzyme] ratio (dimensionless). Besides, in test [5] (covalent (acyl intermediate)), the HAT was 20 [16, 24] [inhibitor]/[enzyme] ratio (dimensionless).
